Reference: patent US7781430B2, “Benzoxazole carboxamides for treating CINV and IBS-D” (Albany Molecular Research, Inc., priority 2005, dated 2010)

Assays:
5-HT3 receptors = biological target: T1, 5-HT3 receptors (Mus musculus, UniProt P23979); test: Bezold-Jarisch assay in vivo (inhibition of serotonin induced bradycardia); conditions: 30 mg/kg orally, CD-1 mice; 5-HT (0.5 mg/kg IV)-induced bradycardia recorded sixty minutes later, pentobarbital-anesthetized
T1 construct: a group of 5 male or female CD-1 (Crl.) mice; from tissue
T1 sequence (P23979 24-489): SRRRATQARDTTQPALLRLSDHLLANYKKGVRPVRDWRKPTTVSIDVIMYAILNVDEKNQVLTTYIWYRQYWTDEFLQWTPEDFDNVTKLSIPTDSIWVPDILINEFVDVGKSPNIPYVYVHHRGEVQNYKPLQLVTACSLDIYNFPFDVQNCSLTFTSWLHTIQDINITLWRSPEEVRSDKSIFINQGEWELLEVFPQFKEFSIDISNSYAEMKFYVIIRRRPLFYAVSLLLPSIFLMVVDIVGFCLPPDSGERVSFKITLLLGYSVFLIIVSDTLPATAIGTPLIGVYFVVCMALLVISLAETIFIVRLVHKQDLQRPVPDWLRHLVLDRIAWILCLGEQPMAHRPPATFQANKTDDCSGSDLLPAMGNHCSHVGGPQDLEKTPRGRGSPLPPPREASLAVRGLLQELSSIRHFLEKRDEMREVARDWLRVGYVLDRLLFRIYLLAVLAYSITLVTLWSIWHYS
Protocol: Bezold-Jarisch Assay in vivo. […] Arch. Int. Pharmacodyn. 277: 235-252, 1985]. Test substances and vehicle [2% Tween 80] were each administered orally (30 mg/kg) to a group of 5 male or female CD-1 (Crl.) mice each weighing 24±2 g. A dosing volume of 10 mL/kg was used. Sixty minutes later, 5-HT (0.5 mg/kg IV)-induced bradycardia was recorded in pentobarbital (80 mg/kg IP, given 10 minutes before 5-HT)-anesthetized animals.

melting point [°C] | Compound | % Inhibition in vivo (5-HT3 receptors) [%]
209 to 210 | CN1CCC(NC(=O)c2cccc3nc(-c4ccccc4)oc23)CC1 | –
229 to 231 | CN1C2CCCC1CC(NC(=O)c1cccc3nc(-c4ccc(F)cc4)oc13)C2 (stereo not shown) | –
164 to 166 | CN1C2CCC1CC(NC(=O)c1cccc3nc(-c4ccccc4)oc13)C2 (stereo not shown) | –
179 to 180 | O=C(NC1CN2CCC1CC2)c1cccc2nc(-c3ccccc3)oc12 (stereo not shown) | –
185 to 187 | CN1C2CCCC1CC(NC(=O)c1cccc3oc(-c4ccc(Cl)cc4)nc13)C2 (stereo not shown) | –
182 to 185 | CN1C2CCCC1CC(NC(=O)c1cccc3oc(-c4ccccc4)nc13)C2 (stereo not shown) | –
149 to 151 | CN1C2CCC1CC(NC(=O)c1cccc3oc(-c4ccccc4)nc13)C2 (stereo not shown) | –
126 to 128 | CN1CCC(NC(=O)c2cccc3oc(-c4ccccc4)nc23)CC1 | –
160 to 162 | COc1ccc(-c2nc3cccc(C(=O)NC4CC5CCCC(C4)N5C)c3o2)cc1 (stereo not shown) | –
199 to 201 | CN1C2CCCC1CC(NC(=O)c1cc(Cl)cc3nc(-c4ccccc4)oc13)C2 (stereo not shown) | –
193 to 196 | CN1C2CCCC1CC(NC(=O)c1cccc3nc(-c4ccc(Cl)cc4)oc13)C2 (stereo not shown) | –
191 to 193 | O=C(NC1CCNCC1)c1cccc2nc(-c3ccccc3)oc12 | –
197 to 199 | CN1C2CCCC1CC(NC(=O)c1cccc3oc(-c4ccc(F)cc4)nc13)C2 (stereo not shown) | –
103 to 105 | COc1ccc(-c2nc3c(C(=O)NC4CC5CCCC(C4)N5C)cccc3o2)cc1 (stereo not shown) | –

The remaining lines, values behind:

Compound | melting point [°C] | % Inhibition in vivo (5-HT3 receptors) [%]
COc1ccc(-c2nc3cccc(C(=O)NC4CN5CCC4CC5)c3o2)cc1 (stereo not shown) | 166 to 167 | –
O=C(NC1CN2CCC1CC2)c1cc(Cl)cc2oc(-c3ccccc3)nc12 (stereo not shown) | 180 to 183 | –
CN1CCC(NC(=O)c2cc(Cl)cc3oc(-c4ccccc4)nc23)CC1 | 170 to 172 | –
Cc1nccn1CCNC(=O)c1cccc2oc(-c3ccccc3)nc12 | 125 to 127 | –
Cc1nccn1CCCNC(=O)c1cccc2oc(-c3ccccc3)nc12 | 145 to 148 | –
O=C(NC1CN2CCC1CC2)c1cccc2nc(-c3ccc(F)cc3)oc12 (stereo not shown) | 185 to 187 | –
O=C(NC1CN2CCC1CC2)c1cccc2oc(-c3ccccc3)nc12 (stereo not shown) | 77 to 80 | –
CN1C2CCCC1CC(NC(=O)c1cc(Cl)cc3oc(-c4ccccc4)nc13)C2 (stereo not shown) | – | 40
O=C(NC1CN2CCC1CC2)c1cccc2oc(-c3ccc(F)cc3)nc12 (stereo not shown) | 208 to 209 | –
COc1ccc(-c2nc3c(C(=O)NC4CN5CCC4CC5)cccc3o2)cc1 (stereo not shown) | 108 to 109 | –
O=C(NC1CCNCC1)c1cc(Cl)cc2oc(-c3ccccc3)nc12 | 169 to 171 | –
O=C(NC1CCNCC1)c1cccc2oc(-c3ccccc3)nc12 | 99 to 102 | –
O=C(NC1CN2CCC1CC2)c1cc(Cl)cc2nc(-c3ccccc3)oc12 (stereo not shown) | 283 to 285 | –
O=C(NC1CN2CCC1CC2)c1cccc2oc(-c3ccc(Cl)cc3)nc12 (stereo not shown) | 194 to 196 | –
O=C(NC1CN2CCC1CC2)c1cccc2oc(-c3ccsc3)nc12 (stereo not shown) | – | 62
COc1ccccc1-c1nc2c(C(=O)NC3CN4CCC3CC4)cccc2o1 (stereo not shown) | – | 88
O=C(NC1CN2CCC1CC2)c1cccc2nc(-c3ccc(Cl)cc3)oc12 (stereo not shown) | 181 to 183 | –
